Results on 19 compounds are retold here after ChEMBL document CHEMBL1128768, “Structure-activity relationships of tricyclic quinoxalinediones as potent antagonists for the glycine binding site of the NMDA receptor 1” (Bioorg Med Chem Lett, 1995).

Structures are written as SMILES.

In the assay the target is Glutamate receptor ionotropic, NMDA 1 (Rattus norvegicus, UniProt P35439). The experiment in a line: Affinity measured by using [3H]5,7-dichlorokynurenic acid (DCKA) for the glycine binding site of NMDA receptor.

Consider `CC[C@H]1Cc2cc(Br)cc3[nH]c(=O)c(=O)n(c23)[C@@H]1CC(=O)Nc1ccccc1`, for which the Ki is 3.8 nM.
For the compound `CC(C(=O)Nc1ccccc1)[C@@H]1CCc2cc(Br)cc3[nH]c(=O)c(=O)n1c23` (stereo in doubt; 24b), affinity was put at a Ki of 590 nM.
Consider `C[C@H]1Cc2cc(Br)cc3[nH]c(=O)c(=O)n(c23)[C@@H]1CC(=O)Nc1ccccc1`, for which the Ki was determined as 3 nM.
Compound `C[C@H]1C[C@@H](CC(=O)Nc2ccccc2)n2c(=O)c(=O)[nH]c3cc(Br)cc1c32` displayed an inhibition constant Ki of 17.1 nM.
`O=C(O)C[C@@H]1CCc2cc(Br)cc3[nH]c(=O)c(=O)n1c23` had a Ki of 9.9 nM.
As for `C[C@@]1(CC(=O)Nc2ccccc2)CCc2cc(Br)cc3[nH]c(=O)c(=O)n1c23`, the affinity, expressed as Ki, was 760 nM.
On to `CC(C(=O)O)[C@@H]1CCc2cc(Br)cc3[nH]c(=O)c(=O)n1c23` (stereo in doubt; 23a), for which the Ki stood at 241 nM.
`CC(C(=O)Nc1ccccc1)[C@@H]1CCc2cc(Br)cc3[nH]c(=O)c(=O)n1c23` (stereo in doubt; 23b): the affinity corresponds to a Ki of 665 nM.
`C[C@@H]1Cc2cc(Br)cc3[nH]c(=O)c(=O)n(c23)[C@@H]1CC(=O)Nc1ccccc1`: affinity was put at a Ki of 21 nM.
Next, `C[C@@H]1Cc2cc(Br)cc3[nH]c(=O)c(=O)n(c23)[C@@H]1CC(=O)O`: 29.6 nM; `C[C@@H]1C[C@@H](CC(=O)Nc2ccccc2)n2c(=O)c(=O)[nH]c3cc(Br)cc1c32`: 7.4 nM; `C[C@H]1Cc2cc(Br)cc3[nH]c(=O)c(=O)n(c23)[C@@H]1CC(=O)O`: 3.3 nM.
In turn, `C[C@@H]1C[C@@H](CC(=O)O)n2c(=O)c(=O)[nH]c3cc(Br)cc1c32` registered a Ki of 38.3 nM.
The compound `O=C(C[C@@H]1CCc2cc(Br)cc3[nH]c(=O)c(=O)n1c23)Nc1ccccc1` had a Ki of 2.6 nM.
`C[C@H]1C[C@@H](CC(=O)O)n2c(=O)c(=O)[nH]c3cc(Br)cc1c32` registered a Ki of 42 nM.
In turn, `CC[C@H]1Cc2cc(Br)cc3[nH]c(=O)c(=O)n(c23)[C@@H]1CC(=O)O` had a Ki of 1.4 nM.
For the compound `CC(C(=O)O)[C@@H]1CCc2cc(Br)cc3[nH]c(=O)c(=O)n1c23` (stereo in doubt; 24a), the Ki was 300 nM.
Regarding `CC(C)[C@H]1Cc2cc(Br)cc3[nH]c(=O)c(=O)n(c23)[C@@H]1CC(=O)O`, the Ki amounted to 8.4 nM.
As for `C[C@@]1(CC(=O)O)CCc2cc(Br)cc3[nH]c(=O)c(=O)n1c23`, the Ki amounted to 451 nM.

By Ki is commonly meant the equilibrium dissociation constant of an inhibitor or competing ligand from its target. A low value points to a stronger hold on the target.
